Reference: US11053242B2, “[9,10-dimethoxy-3-(2-methylpropyl)-1H,2H,3H,4H,6H,7H,11BH-pyrido-[2,1-a]isoquinolin-2-yl]methanol and compounds, compositions and methods relating thereto” (Neurocrine Biosciences, Inc., priority 2015, dated 2021)
pKi: −log10 of the molar value.

Molecular target: VMAT2 (human platelet homogenate) (Homo sapiens (Human), UniProt Q05940)
Experiment: Human VMAT2 Ki, slightly modified competition binding procedure (Table 11);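 also: competition binding with 90 min incubation at 25 °C, after which filter-retained radioligand was measured by scintillation counting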
Conditions: 10 nM 3H-dihydrotetrabenazine
Procedure: Following incubation at 25° C. for 90 minutes, bound radioligand was collected by rapid filtration onto GF/B glass fiber filters using a Unifilter-96 Harvester (PerkinElmer). Filter plates were pre-treated with 0.1% polyethylenimine and allowed to dry overnight, and following harvesting the filter plates were washed with 800 d VMAT2 binding buffer. Bound radioligand was quantified by scintillation counting using a Topcount NXT (PerkinElmer).

VMAT2 (human platelet homogenate), sequence (Q05940 whole entry): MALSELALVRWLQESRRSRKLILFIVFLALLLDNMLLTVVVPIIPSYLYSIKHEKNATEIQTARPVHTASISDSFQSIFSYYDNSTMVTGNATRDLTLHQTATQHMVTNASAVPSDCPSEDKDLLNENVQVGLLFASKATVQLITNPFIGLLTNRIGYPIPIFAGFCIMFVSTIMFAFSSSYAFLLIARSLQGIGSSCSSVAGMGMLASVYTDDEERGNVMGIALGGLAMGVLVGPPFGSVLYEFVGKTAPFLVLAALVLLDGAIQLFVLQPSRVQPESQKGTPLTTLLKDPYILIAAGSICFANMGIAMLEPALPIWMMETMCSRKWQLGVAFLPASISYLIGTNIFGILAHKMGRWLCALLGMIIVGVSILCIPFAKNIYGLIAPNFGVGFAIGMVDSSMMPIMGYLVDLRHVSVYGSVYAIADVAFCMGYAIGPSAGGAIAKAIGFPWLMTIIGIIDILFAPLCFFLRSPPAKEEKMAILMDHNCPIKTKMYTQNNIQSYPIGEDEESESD

Row | pKi | Compound
1 | > 8.00 | COc1cc2c(cc1OC)[C@H]1C[C@@H](COC(=O)[C@@H]3CC(=O)NC(=O)N3)[C@H](CC(C)C)CN1CC2 [Compound 2-31, [(2R,3S,11bR)-9,10-dimethoxy-3-(2-methylpropyl)-1H,2H,3H,4H,6H,7H,11bH-pyrido[2,1-a]isoquinolin-2-yl]methyl (4S)-2,6-dioxo-1,3-diazinane-4-carboxylate]
2 | > 8.00 | CCN(CC)CCC(=O)OC[C@@H]1C[C@@H]2c3cc(OC)c(OC)cc3CCN2C[C@H]1CC(C)C [Compound 2-32, [(2R,3S,11bR)-9,10-dimethoxy-3-(2-methylpropyl)-1H,2H,3H,4H,6H,7H,11bH-pyrido[2,1-a]isoquinolin-2-yl]methyl 3-(diethylamino)propanoate]
3 | 6.30 to 8.00 | COc1cc2c(cc1OC)[C@H]1C[C@@H](COC(=O)C[C@@H]3NC(=O)NC3=O)[C@H](CC(C)C)CN1CC2 [Compound 2-33, [(2R,3S,11bR)-9,10-dimethoxy-3-(2-methylpropyl)-1H,2H,3H,4H,6H,7H,11bH-pyrido[2,1-a]isoquinolin-2-yl]methyl 2-[(4S)-2,5-dioxoimidazolidin-4-yl]acetate]
4 | > 8.00 | CCCCCC(=O)OC[C@@H]1C[C@@H]2c3cc(OC)c(OC)cc3CCN2C[C@H]1CC(C)C [Compound 2-34, [(2R,3S,11bR)-9,10-dimethoxy-3-(2-methylpropyl)-1H,2H,3H,4H,6H,7H,11bH-pyrido[2,1-a]isoquinolin-2-yl]methyl hexanoate]
5 | < 6.30 | COc1cc2c(cc1OC)[C@H]1C[C@@H](COC(=O)CS(=O)(=O)O)[C@H](CC(C)C)CN1CC2 [Compound 2-35, 2-{[(2R,3S,11bR)-9,10-dimethoxy-3-(2-methylpropyl)-1H,2H,3H,4H,6H,7H,11bH-pyrido[2,1-a]isoquinolin-2-yl]methoxy}-2-oxoethane-1-sulfonic acid]
6 | > 8.00 | COc1cc2c(cc1OC)[C@H]1C[C@@H](COC(=O)CCCN(C)C)[C@H](CC(C)C)CN1CC2 [Compound 2-36, [(2R,3S,11bR)-9,10-dimethoxy-3-(2-methylpropyl)-1H,2H,3H,4H,6H,7H,11bH-pyrido[2,1-a]isoquinolin-2-yl]methyl 4-(dimethylamino)butanoate]
7 | 6.30 to 8.00 | COc1cc2c(cc1OC)[C@H]1C[C@@H](COC(=O)C3CCCN(S(C)(=O)=O)C3)[C@H](CC(C)C)CN1CC2 (stereo partly drawn) [Compound 2-37, [(2R,3S,11bR)-9,10-dimethoxy-3-(2-methylpropyl)-1H,2H,3H,4H,6H,7H,11bH-pyrido[2,1-a]isoquinolin-2-yl]methyl 1-methanesulfonylpiperidine-3-carboxylate]
8 | 6.30 to 8.00 | COc1cc2c(cc1OC)[C@H]1C[C@@H](COC(=O)C3C(C)(C)C3(C)C)[C@H](CC(C)C)CN1CC2 [Compound 2-38, [(2R,3S,11bR)-9,10-dimethoxy-3-(2-methylpropyl)-1H,2H,3H,4H,6H,7H,11bH-pyrido[2,1-a]isoquinolin-2-yl]methyl 2,2,3,3-tetramethylcyclopropane-1-carboxylate]
9 | > 8.00 | COc1cc2c(cc1OC)[C@H]1C[C@@H](COC(=O)CCn3c(=O)oc4ccccc43)[C@H](CC(C)C)CN1CC2 [Compound 2-39, [(2R,3S,11bR)-9,10-dimethoxy-3-(2-methylpropyl)-1H,2H,3H,4H,6H,7H,11bH-pyrido[2,1-a]isoquinolin-2-yl]methyl 3-(2-oxo-2,3-dihydro-1,3-benzoxazol-3-yl)propanoate]
10 | > 8.00 | COc1cc2c(cc1OC)[C@H]1C[C@@H](COC(=O)CC(=O)O)[C@H](CC(C)C)CN1CC2 [Compound 3-2, 3-{[(2R,3S,11bR)-9,10-dimethoxy-3-(2-methylpropyl)-1H,2H,3H,4H,6H,7H,11bH-pyrido[2,1-a]isoquinolin-2-yl]methoxy}-3-oxopropanoic acid]
11 | 6.30 to 8.00 | COc1cc2c(cc1OC)[C@H]1C[C@@H](COC(=O)C3CCCCC3C(=O)O)[C@H](CC(C)C)CN1CC2 (stereo partly drawn) [Compound 3-5, 2-({[(2R,3S,11bR)-9,10-dimethoxy-3-(2-methylpropyl)-1H,2H,3H,4H,6H,7H,11bH-pyrido[2,1-a]isoquinolin-2-yl]methoxy}carbonyl)cyclohexane-1-carboxylic acid]
12 | > 8.00 | COc1cc2c(cc1OC)[C@H]1C[C@@H](COC(=O)[C@@H](N)Cc3ccccc3)[C@H](CC(C)C)CN1CC2 [Compound 4-2, [(2R,3S,11bR)-9,10-dimethoxy-3-(2-methylpropyl)-1H,2H,3H,4H,6H,7H,11bH-pyrido[2,1-a]isoquinolin-2-yl]methyl (2S)-2-amino-3-phenylpropanoate]
13 | 6.30 to 8.00 | COc1cc2c(cc1OC)[C@H]1C[C@@H](COC(=O)[C@@H]3COCCN3)[C@H](CC(C)C)CN1CC2 [Compound 4-3, [(2R,3S,11bR)-9,10-dimethoxy-3-(2-methylpropyl)-1H,2H,3H,4H,6H,7H,11bH-pyrido[2,1-a]isoquinolin-2-yl]methyl (3S)-morpholine-3-carboxylate]
14 | 6.30 to 8.00 | COc1cc2c(cc1OC)[C@H]1C[C@@H](COC(=O)C3NCc4ccccc43)[C@H](CC(C)C)CN1CC2 (stereo partly drawn) [Compound 4-6, [(2R,3S,11bR)-9,10-dimethoxy-3-(2-methylpropyl)-1H,2H,3H,4H,6H,7H,11bH-pyrido[2,1-a]isoquinolin-2-yl]methyl 2,3-dihydro-1H-isoindole-1-carboxylate]
15 | 6.30 to 8.00 | COc1cc2c(cc1OC)[C@H]1C[C@@H](COC(=O)C3CCCC3N)[C@H](CC(C)C)CN1CC2 (stereo partly drawn) [Compound 4-11, [(2R,3S,11bR)-9,10-dimethoxy-3-(2-methylpropyl)-1H,2H,3H,4H,6H,7H,11bH-pyrido[2,1-a]isoquinolin-2-yl]methyl 2-aminocyclopentane-1-carboxylate]
16 | > 8.00 | COc1cc2c(cc1OC)[C@H]1CC(COC(=O)[C@@H](N)C(C)C)[C@H](CC(C)C)CN1CC2 (stereo partly drawn) [Compound 4-12, [(3S,11bR)-9,10-dimethoxy-3-(2-methylpropyl)-1H,2H,3H,4H,6H,7H,11bH-pyrido[2,1-a]isoquinolin-2-yl]methyl (2S)-2-amino-3-methylbutanoate]
17 | > 8.00 | COc1cc2c(cc1OC)[C@H]1C[C@@H](COC(=O)CC3(N)CCCCC3)[C@H](CC(C)C)CN1CC2 [Compound 4-14, [(2R,3S,11bR)-9,10-dimethoxy-3-(2-methylpropyl)-1H,2H,3H,4H,6H,7H,11bH-pyrido[2,1-a]isoquinolin-2-yl]methyl 2-(1-aminocyclohexyl)acetate]
18 | > 8.00 | COc1cc2c(cc1OC)[C@H]1C[C@@H](COC(=O)CC(N)C(C)C)[C@H](CC(C)C)CN1CC2 (stereo partly drawn) [Compound 4-17, [(2R,3S,11bR)-9,10-dimethoxy-3-(2-methylpropyl)-1H,2H,3H,4H,6H,7H,11bH-pyrido[2,1-a]isoquinolin-2-yl]methyl 3-amino-4-methylpentanoate]
19 | 6.30 to 8.00 | COc1cc2c(cc1OC)[C@H]1C[C@@H](COC(=O)c3ccc(CN)cc3)[C@H](CC(C)C)CN1CC2 [Compound 4-18, [(2R,3S,11bR)-9,10-dimethoxy-3-(2-methylpropyl)-1H,2H,3H,4H,6H,7H,11bH-pyrido[2,1-a]isoquinolin-2-yl]methyl 4-(aminomethyl)benzoate]
20 | 6.30 to 8.00 | COc1cc2c(cc1OC)[C@H]1C[C@@H](COC(=O)C(N)c3ccccc3OC)[C@H](CC(C)C)CN1CC2 (stereo partly drawn) [Compound 4-19, [(2R,3S,11bR)-9,10-dimethoxy-3-(2-methylpropyl)-1H,2H,3H,4H,6H,7H,11bH-pyrido[2,1-a]isoquinolin-2-yl]methyl 2-amino-2-(2-methoxyphenyl)acetate]
21 | > 8.00 | COc1cc2c(cc1OC)[C@H]1C[C@@H](COC(=O)C3CCCNC3)[C@H](CC(C)C)CN1CC2 (stereo partly drawn) [Compound 4-20, [(2R,3S,11bR)-9,10-dimethoxy-3-(2-methylpropyl)-1H,2H,3H,4H,6H,7H,11bH-pyrido[2,1-a]isoquinolin-2-yl]methyl piperidine-3-carboxylate]
22 | 6.30 to 8.00 | COc1cc2c(cc1OC)[C@H]1C[C@@H](COC(=O)C3NCCc4ccccc43)[C@H](CC(C)C)CN1CC2 (stereo partly drawn) [Compound 4-21, [(2R,3S,11bR)-9,10-dimethoxy-3-(2-methylpropyl)-1H,2H,3H,4H,6H,7H,11bH-pyrido[2,1-a]isoquinolin-2-yl]methyl 1,2,3,4-tetrahydroisoquinoline-1-carboxylate]
23 | > 8.00 | COc1cc2c(cc1OC)[C@H]1C[C@@H](COC(=O)C[C@H]3CCCN3)[C@H](CC(C)C)CN1CC2 [Compound 4-23, [(2R,3S,11bR)-9,10-dimethoxy-3-(2-methylpropyl)-1H,2H,3H,4H,6H,7H,11bH-pyrido[2,1-a]isoquinolin-2-yl]methyl 2-[(2R)-pyrrolidin-2-yl]acetate]
24 | > 8.00 | COc1cc2c(cc1OC)[C@H]1C[C@@H](COC(=O)CCN)[C@H](CC(C)C)CN1CC2 [Compound 4-24, [(2R,3S,11bR)-9,10-dimethoxy-3-(2-methylpropyl)-1H,2H,3H,4H,6H,7H,11bH-pyrido[2,1-a]isoquinolin-2-yl]methyl 3-aminopropanoate]
25 | > 8.00 | COc1cc2c(cc1OC)[C@H]1C[C@@H](COC(=O)C3CNCCO3)[C@H](CC(C)C)CN1CC2 (stereo partly drawn) [Compound 4-27, [(2R,3S,11bR)-9,10-dimethoxy-3-(2-methylpropyl)-1H,2H,3H,4H,6H,7H,11bH-pyrido[2,1-a]isoquinolin-2-yl]methyl morpholine-2-carboxylate]
26 | 6.30 to 8.00 | COc1cc2c(cc1OC)[C@H]1C[C@@H](COC(=O)[C@H](N)c3ccc(C(F)(F)F)cc3)[C@H](CC(C)C)CN1CC2 [Compound 4-30, [(2R,3S,11bR)-9,10-dimethoxy-3-(2-methylpropyl)-1H,2H,3H,4H,6H,7H,11bH-pyrido[2,1-a]isoquinolin-2-yl]methyl (2R)-2-amino-2-[4-(trifluoromethyl)phenyl]acetate]

Row | Compound | pKi
27 | COc1cc2c(cc1OC)[C@H]1C[C@@H](COC(=O)[C@@H]3CCCC[C@H]3N)[C@H](CC(C)C)CN1CC2 [Compound 4-4, [(2R,3S,11bR)-9,10-dimethoxy-3-(2-methylpropyl)-1H,2H,3H,4H,6H,7H,11bH-pyrido[2,1-a]isoquinolin-2-yl]methyl (1R,2R)-2-aminocyclohexane-1-carboxylate] | > 8.00
28 | COc1cc2c(cc1OC)[C@H]1C[C@@H](COC(=O)[C@H]3CCCC[C@@H]3N)[C@H](CC(C)C)CN1CC2 [Compound 4-25, [(2R,3S,11bR)-9,10-dimethoxy-3-(2-methylpropyl)-1H,2H,3H,4H,6H,7H,11bH-pyrido[2,1-a]isoquinolin-2-yl]methyl (1S,2S)-2-aminocyclohexane-1-carboxylate] | 6.30 to 8.00
